Three compounds from patent US7091351B2, “Vanadium compounds for treating cancer” (Parker Hughes Institute, priority 1998, dated 2006) can be followed below.

By IC50 is commonly meant the concentration needed to halve the response being measured. A higher IC50 goes with lower potency.

Common to all, as to type: cell-based, human
Test [1] deals with Tera-2 testicular cancer cells. As to the kind of experiment: MTT cytotoxicity assay of vanadocenes, TERA-2 cells. The note with it: 24 h, 1.9-250 μM. How it is done:
(§1) Human testicular cancer cell lines, Tera-2 (embryonal carcinoma) and Ntera-2 (pluripotent embryonal carcinoma) were obtained from the American Type Culture Collection (ATCC) (Rockeville, Md.) and propagated in T-25, T-75, or T-150 cm^2 tissue culture flasks (Corning Corp., Corning, N.Y.) in McCoy's 5A medium and Dulbecco's modified Eagle's medium respectively. Both media were supplemented with 10% fetal calf serum (FCS), 4 mM glutamine, 100 U/ml penicillin G, and […] streptomycin sulfate. All tissue culture reagents were obtained from Life Technologies Inc. (GIBCO-BRL), Gaithersburg, Md. Cell lines were cultivated for a minimum of two passages after thawing prior to experimentation. Other cell lines that were used in this study were the human B-lineage acute lymphoblastic leukemia (ALL) cell line NALM-6. Uckun, F. M., Evans, W. E., Forsyth, C. J., Waddick, K. G., Tuel-Ahlgren, L., Chelstrom, L. M., Burkhardt, A., Bolen, J., Myers, D. E. Biotherapy of B-cell precursor leukemia by targeting genistein to CD19-associated tyrosine kinase. Science (Washington DC) 267:886–91, 1995; T-lineage ALL cell line MOLT-3, Waurzyniak, B., Shneider, E. A., Tumer, N., Yanishevski, Y., Gunther, R., Chelstrom, L., Wendorf, H., Myers, D. E., Irvin, J. D., Messinger, Y., Ek, O., Zeren, T., Chandan-Langlie, M., Evans, W. E., Uckun, F. M. In vivo toxicity, pharmacokinetics, and antileukemic activity of TXU (anti-CD7)-pokeweed antiviral protein immunotoxin. Clinical Cancer Research 3:881–890, 1997; AML cell line HL-60, Perentesis, J. P., Waddick, K. G., Bendel, A. E., Shao, Y., Warman, B. E., Chandan-Langlie, M., and Uckun, F. M. Induction of apoptosis in multi-drug resistant andradiation-resistant acute myeloid leukemia cells by a recombinant fusion toxin directed against the granulocyte macrophage colony stimulating factor receptor. Clin. Cancer Res. 3:347–355, 1997; breast cancer cell lines MDA-MB-231 and BT-20, Uckun, F. M., Narla, R. K., Jun, X., Zeren, T., Venkatachalam, T., Waddick, K. G., Rostostev, A., Myers, D. E. Cytotoxic activity of EGF-genstein against breast cancer cells. Clin. Cancer Res. 4:901–912, 1998; glioblastoma cell lines U87 and U373, Narla, R. K., Liu, X., Myers, D. E., and Uckun, F. M. 4-(3′-Bromo-4′hydroxylphenyl)-amino-6,7-dimethoxyquinazoline (WHI-P154): A novel quinazoline derivative with potent cytotoxic activity against human glioblastoma cells. Clin. Cancer Res. 4:1405–1414, 1998.
(§2) MTT (3-[4,5-dimethyl thiazol-2-yl]-2,5-diphenyltetrazolium bromide)-based colorimetric assays were used for evaluation of the cytotoxicity of vanadocene compounds. Mosmann, T. Rapid colorimetric assay for cellular growth and survival: application to proliferation and cytotoxicity assays. J. Immunol. Methods, 65: 55–63, 1983. Briefly, cells were harvested with 0.125% (w/v) trypsin-0.02% EDTA (GIBCO-BRL) from exponential-phase maintenance cultures and centrifuged (300 g×5 min). After suspension and counting, cells were dispensed within triplicate 96-well tissue culture plates in 100 μl volumes. After 24 h incubation, the culture medium was discarded and replaced with 100 μl of fresh medium containing serial two-fold dilutions of drugs in medium to yield 1.9 μM to 250 μM. All compounds were reconstituted in DMSO to a concentration of 100 mM, and the stock solution was made fresh for each experiment. Control wells consisted of medium containing 0.25% of DMSO alone were used for solvent control. Culture plates were then incubated for 24 h before adding 10 μl of MTT solution (5 mg/ml in PBS) to each well. Wells containing only medium and MTT were used as controls for each plate. The tetrazolium/formazan reaction was allowed to proceed for 4 h at 37° C., and then 100 μl of the solubilization buffer (10% sodium dodecyl sulfate in 0.1% HCl) were added to all wells and mixed thoroughly to dissolve the dark blue formazan crystals. […]
Background: Tetrazolium assays rely on reduction of a dye to a coloured formazan, in cell work by metabolically active cells.

In the next test the test system is U373 glioblastoma cells. The test can be described thus: MTT cytotoxicity assay of vanadocenes, U373 cells. The note with it: 24 h. How it is done: as §1, §2
Test [2] concerns NALM-6 B-lineage acute lymphoblastic leukemia cells. As to the kind of experiment: MTT cytotoxicity assay of vanadocenes, NALM-6 cells. As to conditions: 24 h. How it is done: as §1
as §2, with “control.” for “control. Culture plates were then incubated for 24 h before adding 10 μl of MTT solution (5 mg/ml in PBS) to each well. Wells containing only medium and MTT were used as controls for each plate. The tetrazolium/formazan reaction was allowed to proceed for 4 h at 37° C., and then 100 μl of the solubilization buffer (10% sodium dodecyl sulfate in 0.1% HCl) were added to all wells and mixed thoroughly to dissolve the dark blue formazan crystals.”

Test [3] deals with Tera-2 testicular cancer cells. The test can be described thus: Flow cytometric TUNEL apoptosis assay, TERA-2 cells. The note with it: 24 h, TUNEL-positive nuclei. As for the experimental part: (§3) A flow cytometric two-color terminal […] transferase (TdT)-mediated digoxigenin-uridine triphosphate (dUTP) nick-end labeling assay (TUNEL) was employed to detect apoptotic nuclei. Gavrieli, Y., Sherman, Y., Ben-Sasson, S. A. Identification of programmed cell death in situ via specific labeling of nuclear DNA fragmentation. J. Cell Biol., 119: 493–501, 1992. Exponentially growing cells (10^6/ml) were incubated in DMSO alone (0.1%) or treated with 100 μM each of the 16 vanadocenes (VDB, VDC, VMDC, VDI, VDA, VDCN, VDOCN, VDSCN, VDSeCN, VDT, VDCO, VDFe, VD(acac), VDH, VD(dpy), and VD(dtc) in 0.1% DMSO for 24 h. Cells were washed in PBS, fixed in 4% paraformaldehyde in PBS for 15 min on ice. Following two washings in PBS, they were permeabilized with 0.1% Triton X-100 in 0.1% sodium citrate for 2 min on ice, and washed twice in PBS. Labeling of exposed 3′-hydroxyl (3′-OH) ends of fragmented nuclear DNA was performed using TdT and fluorescein isothiocyanate (FITC)-conjugated dUTP according to the manufacturer's recommendations (Boehringer Mannheim, Indianapolis, Ind.). Cells were counterstained with 5 μg/ml PI. Control samples included: (i) untreated cells; (ii) cells incubated with the reaction mixture without the TdT enzyme. Cells were analyzed with a FACS Calibur flow cytometer (Becton Dickinson, Mountain View, Calif.). Relative DNA content (PI) was detected with band-pass filter 585/42, and dUTP incorporation (FITC) was detected with band-pass filter 530/30. Fluorescence was compensated for in the acquisition software using single-label control samples. Data were acquired in listmode, gated to 10,000 events per sample, and analyzed with the use of CELLQuest software program (Becton Dickinson). […] Vanadocene-induced apoptosis is shown by an increase in the number of cells staining with FITC-dUTP. The M1 and M2 gates were used to demarcate non-apoptotic and apoptotic PI-counterstained cell populations, respectively. TUNEL assays were performed using two testicular cell lines Tera-2 and Ntera-2 following exposure to each of the 16 vanadocenes. In other experiments, MC540 binding (as an early marker of apoptosis) and PI permeability (as a marker of advanced stage apoptosis) were simultaneously measured in human cancer cells 24 hours after exposure to vanadocenes, as previously described. Uckun, F. M., Narla, R. K., Jun, X., Zeren, T., Venkatachalam, T., Waddick, K. G., Rostostev, A., Myers, D. E. Cytotoxic activity of EGF-genstein against breast cancer cells. Clin. Cancer Res. 4:901–912, 1998. Vassilev, A., Ozer, Z., Navara, C., Mahajan, S., and Uckun, F. M. Bruton's tyrosine kinase as an inhibitor of the Fas/CD95 death-inducing signaling complex. J. Biol. Chem. 274:1646–56, 1999. Whole cells were analyzed using a FACStar Plus flow cytometer (Becton Dickinson, San Jose, Calif.). All analyses were done using 488 nm excitation from an argon laser. MC540 and PI emissions were split with a 600 nm short pass dichroic mirror and a 575 nm band pass filter was placed in front of one photomultiplier tube to measure MC540 emission and a 635 nm band pass filter was used for PI emission.
(Flow cytometry measures light scatter and fluorescence of single cells or particles in a stream.)

Test [4] relates to Ntera-2 testicular cancer cells. As to the kind of experiment: Flow cytometric TUNEL apoptosis assay, NTERA-2 cells. As to conditions: 24 h, TUNEL-positive nuclei. As for the experimental part:
as §3

The test system is the same in test [5]. As to the kind of experiment: MTT cytotoxicity assay of vanadocenes, NTERA-2 cells. The note with it: 24 h, 1.9-250 μM. As for the experimental part:
as §1, §2

Test [6] relates to MDA-MB-231 breast cancer cells. The test can be described thus: MC540 binding / PI permeability apoptosis assay, MDA-MB-231. The note with it: 100 μM, 24 hours. How it is done:
(§4) A flow cytometric two-color terminal […] transferase (TdT)-mediated digoxigenin-uridine triphosphate (dUTP) nick-end labeling assay (TUNEL) was employed to detect apoptotic nuclei. Gavrieli, Y., Sherman, Y., Ben-Sasson, S. A. Identification of programmed cell death in situ via specific labeling of nuclear DNA fragmentation. J. Cell Biol., 119: 493–501, 1992. […] Cells were analyzed with a FACS Calibur flow cytometer (Becton Dickinson, Mountain View, Calif.). Relative DNA content (PI) was detected with band-pass filter 585/42, and dUTP incorporation (FITC) was detected with band-pass filter 530/30. Fluorescence was compensated for in the acquisition software using single-label control samples. Data were acquired in listmode, gated to 10,000 events per sample, and analyzed with the use of CELLQuest software program (Becton Dickinson). […] In other experiments, MC540 binding (as an early marker of apoptosis) and PI permeability (as a marker of advanced stage apoptosis) were simultaneously measured in human cancer cells 24 hours after exposure to vanadocenes, as previously described. […] Whole cells were analyzed using a FACStar Plus flow cytometer (Becton Dickinson, San Jose, Calif.). […]

The subject of test [7] is HL60 acute myeloid leukemia cells. As to the kind of experiment: MC540 binding / PI permeability apoptosis assay, HL-60. The note with it: 100 μM, 24 hours. How it is done:
as §4

For a further test, the system named is U87 glioblastoma cells. As to the kind of experiment: MC540 binding / PI permeability apoptosis assay, U87. As to conditions: 100 μM, 24 hours. As for the experimental part: as §4
Test [8] has as its system BT-20 breast cancer cells. As to the kind of experiment: MC540 binding / PI permeability apoptosis assay, BT-20. The note with it: 100 μM, 24 hours. As for the experimental part:
as §4

For the compound `[Br-].[Br-].[V+2].c1cc[cH-]c1.c1cc[cH-]c1` [VDB, VCp2Br2], the IC50 was 154 µM in [1], 62 µM in the test on U373 glioblastoma cells, 17 µM in test [2] and 70 µM in test [5]. Besides, in test [3], the “% Apoptosis at 100 μM TERA-2” value is 84 (83, 86) %. The “% Apoptosis at 100 μM NTERA-2” value in [4] is recorded as 93 (93, 94) %.

For the compound `C1=C[CH]([V+2][CH]2C=CC=C2)C=C1.[N-]=C=[Se].[N-]=C=[Se]` [VDSeCN, VCp2(NCSe)2], the IC50 in [1] was determined as 9 µM. Besides, in test [6], the “cells with dual MC540/PI fluorescence (advanced stage apoptosis), MDA-MB-231” value amounted to 67%; the “total percentage of apoptotic cells (early and advanced stage), MDA-MB-231” value is 72%. The compound also gave an IC50 with U373 glioblastoma cells of 2 µM. The compound further showed a 50% inhibitory concentration (IC50) in test [2] of 3 µM. Besides, in test [7], the “cells with dual MC540/PI fluorescence (advanced stage apoptosis), HL-60” value is given as 51%; the “total percentage of apoptotic cells (early and advanced stage), HL-60” value is 98%. For the same compound, the “% Apoptosis at 100 μM TERA-2” value in test [3] is listed as 78 (75, 80) %. Moreover, in test [4], the “% Apoptosis at 100 μM NTERA-2” value is recorded as 99.6 ± 0.2 (N = 4) %. In test [5], the midpoint of inhibition, the IC50, lay at 22 µM. Also, in the test on U87 glioblastoma cells, the “cells with dual MC540/PI fluorescence (advanced stage apoptosis), U87” value was determined as 79%; the “total percentage of apoptotic cells (early and advanced stage), U87” value was 90%. Further, in test [8], the “cells with dual MC540/PI fluorescence (advanced stage apoptosis), BT-20” value came out at 40%; the “total percentage of apoptotic cells (early and advanced stage), BT-20” value was found to be 61%.

As for `[N-]=[N+]=[N-].[N-]=[N+]=[N-].[V+2].c1cc[cH-]c1.c1cc[cH-]c1` [VDA, VCp2(N3)2], the 50% inhibitory concentration (IC50) was found to be 70 µM in test [1], 51 µM in the test with U373 glioblastoma cells, 16 µM in [2] and 68 µM in test [5]. Further, the “% Apoptosis at 100 μM TERA-2” value in test [3] was 85 (78, 92) %. Besides, the “% Apoptosis at 100 μM NTERA-2” value in test [4] is 85 (78, 93) %.
